Test results from patent US20250163057A1, “DCN-1 MODULATING COMPOUNDS AND METHODS OF USE THEREOF” (Cellarity, Inc., priority 2023, published 2025).
Where two headings read alike, the source gives them in different places.

Key:
[1] = tested on: fetal hemoglobin gene HBG1; assay: HBG1 Nanostring Assay in CD34+ HSPC erythroid differentiation culture; type: cell-based, human; details: for EC50: HBG1 induction, Day10 of erythroid differentiation; for Nanostring Ymax obs (%): relative to a control compound (C1)
Outline: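 HBG1 counts came from direct nCounter hybridization (67° C, 22 h) of day-10 lysates, normalized to ERCC positive controls and a housekeeping gene, giving EC50 and Ymax versus a reference compound. Compounds in 0.1% DMSO were present from day −2 while cells underwent EPO/SCF/IL-3 erythroid differentiation, with IL-3 dropped at day 7, at 37° C.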

[2] = tested on: Cullin-3 (CUL3) neddylation; assay: AlphaLISA assay for Cullin-3 (CUL3) neddylation in TF 1 cells; type: cell-based; details: 3 hours treatment
Outline: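 Neddylated CUL3 was quantified by AlphaLISA in lysates of TF 1 cells exposed for 3 h to test compound in IMDM without supplements. Percent inhibition set between vehicle and 1 μM DI-1548 positive control; IC50 derived by Hill-equation fitting of dose-response curves.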

[3] = molecular target: DCN1 (DCUND1) protein PONY domain (Homo sapiens (Human), UniProt Q96GG9); assay: TR-FRET assay, DCN1 binding with FAM-labeled probe
DCN1 (DCUND1) protein PONY domain, sequence (Q96GG9 60-248): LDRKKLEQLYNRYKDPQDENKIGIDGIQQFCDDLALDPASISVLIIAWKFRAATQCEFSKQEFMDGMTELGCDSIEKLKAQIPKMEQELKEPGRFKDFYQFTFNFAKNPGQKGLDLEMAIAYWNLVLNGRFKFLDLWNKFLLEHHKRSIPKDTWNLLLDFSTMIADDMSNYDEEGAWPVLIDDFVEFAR
Outline: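 TR-FRET ratio (Tb-DCN1 to FAM-probe) read at 1, 5 and 24 hrs after compound addition. Protein: recombinant PONY domain from E. coli, biotinylated and coupled to streptavidin terbium. Either 5 nM DCN1 with 20 nM FAM-probe, or 0.31 nM DCN1 with 100 nM FAM-labelled plus 800 nM unlabelled probe.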

DCN1 protein = DCN1 protein (Homo sapiens (Human), UniProt Q96GG9); assay: Intact Protein MS Analysis with the RapidFire-TOF System (covalent adduct formation); type: binding; details: MS Emax; 400 nM DCN1, 3 hours at room temperature
DCN1 protein, sequence (Q96GG9 whole entry): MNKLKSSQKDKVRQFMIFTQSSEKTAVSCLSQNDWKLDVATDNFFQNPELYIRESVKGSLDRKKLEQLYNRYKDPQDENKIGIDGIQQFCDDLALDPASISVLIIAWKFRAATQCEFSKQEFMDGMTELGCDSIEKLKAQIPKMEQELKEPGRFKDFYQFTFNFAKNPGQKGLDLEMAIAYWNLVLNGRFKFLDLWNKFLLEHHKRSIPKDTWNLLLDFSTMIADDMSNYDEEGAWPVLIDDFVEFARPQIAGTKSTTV
Outline: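 Tag-cleaved human DCN1 (400 nM) expressed in E. coli, in 25 mM Tris-HCl, 200 mM NaCl, 1 mM DTT, was incubated with 11 compound concentrations for 3 h at room temperature and quenched with 0.2% formic acid. Intact-protein Q-TOF MS with deconvolution detected the compound adduct mass.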

[4] = 24 hr after treatment with compound, read-out: TR FRET IC50 24 hr
[5] = TR FRET IC50 1 hr (nM), 1 hr after treatment with compound

CCN1C(=O)[C@@H](NC(=O)c2cccc(C(F)(F)F)c2)[C@@H](c2ccc(F)cc2)c2c(CN(C)C#N)nn(-c3ccccc3)c21 [Compound I-129]
EC50 [1]: > 1000 nM
Nanostring Ymax obs (%) [1]: + (Nanostring Ymax greater than or equal to 0.0 and less than or equal to 50.0)
IC50 [2]: 100 to 1000 nM
IC50 [3, 4]: ≤ 200 nM
IC50 [3, 5]: 200 to 1000 nM
% Adduct Formation (DCN1 protein): +++ (MS Emax % adduct formation greater than 80.0 and less than or equal to 100.0)

CCN1C(=O)[C@H](NC(=O)c2cccc(C(F)(F)F)c2)[C@H](c2ccc(F)cc2)c2c(CN(C)C#N)nn(-c3ccccc3)c21 [Compound I-20]
EC50 ([1]; Homo sapiens, 240 h): > 1000 nM
Nanostring Ymax obs (%) [1]: + (Nanostring Ymax greater than or equal to 0.0 and less than or equal to 50.0)
IC50 ([2]; Homo sapiens, TF-1, 3 h): > 1000 nM
IC50 [3, 4]: 1000 to 3000 nM
IC50 [3, 5]: 1000 to 3000 nM
% Adduct Formation (DCN1 protein): ++ (MS Emax % adduct formation greater than 30.0 and less than or equal to 80.0)

CCN1C(=O)[C@@H](NC(=O)c2cccc(C(F)(F)F)c2)[C@@H](c2ccc(F)cc2)c2c(C(=O)N3CC[C@H](OC)[C@H]3C#N)nn(C3CCOCC3)c21 [Compound I-359]
EC50 ([1]; Homo sapiens, 240 h): ≤ 100 nM
Nanostring Ymax obs (%) [1]: +++ (Nanostring Ymax greater than 100.0)
IC50 ([2]; Homo sapiens, TF-1, 3 h): ≤ 100 nM
IC50 [3, 4]: ≤ 200 nM
IC50 ([3]; read-out: TR FRET IC50 1 hr, 1 hr after treatment with compound): ≤ 200 nM
% Adduct Formation (DCN1 protein): +++ (MS Emax % adduct formation greater than 80.0 and less than or equal to 100.0)

CCN1C(=O)[C@@H](NC(=O)c2cccc(C(F)(F)F)c2)[C@@H](c2ccc(F)cc2)c2c(CN(C)C(=O)/C=C/CN(C)C)nn(-c3ccccc3)c21 [Compound I-117]
EC50 ([1]; Homo sapiens, 240 h): > 1000 nM
Nanostring Ymax obs (%) [1]: + (Nanostring Ymax greater than or equal to 0.0 and less than or equal to 50.0)
IC50 ([2]; Homo sapiens, TF-1, 3 h): > 1000 nM
IC50 [3, 4]: 200 to 1000 nM
IC50 [3, 5]: 200 to 1000 nM
% Adduct Formation (DCN1 protein): + (MS Emax % adduct formation greater than or equal to 0.0 and less than or equal to 30.0)

C=CC(=O)NCc1nn(-c2ccccc2)c2c1[C@H](c1ccc(F)cc1)[C@H](NC(=O)c1cccc(C(F)(F)F)c1)C(=O)N2CC (racemic) [Compound I-202]
Nanostring Ymax obs (%) [1]: + (Nanostring Ymax greater than or equal to 0.0 and less than or equal to 50.0)
IC50 ([2]; Homo sapiens, TF-1, 3 h): 100 to 1000 nM
% Adduct Formation (DCN1 protein): + (MS Emax % adduct formation greater than or equal to 0.0 and less than or equal to 30.0)

CCN1C(=O)[C@@H](NC(=O)c2cccc(C(F)(F)F)c2)[C@@H](c2ccc(F)cc2)c2c([C@@H](C)NC(=O)C(C)Br)nn(-c3ccccc3)c21 (stereo in doubt) [Compound I-197]
EC50 ([1]; Homo sapiens, 240 h): > 1000 nM
Nanostring Ymax obs (%) [1]: ++ (Nanostring Ymax greater than 50.0 and less than or equal to 100.0)
IC50 ([2]; Homo sapiens, TF-1, 3 h): > 1000 nM
% Adduct Formation (DCN1 protein): + (MS Emax % adduct formation greater than or equal to 0.0 and less than or equal to 30.0)

C#CC(=O)NCc1nn(-c2ccccc2)c2c1[C@H](c1ccc(F)cc1)[C@H](NC(=O)c1cccc(C(F)(F)F)c1)C(=O)N2CC (racemic) [Compound I-181]
EC50 ([1]; Homo sapiens, 240 h): ≤ 100 nM
Nanostring Ymax obs (%) [1]: + (Nanostring Ymax greater than or equal to 0.0 and less than or equal to 50.0)
IC50 ([2]; Homo sapiens, TF-1, 3 h): ≤ 100 nM
% Adduct Formation (DCN1 protein): + (MS Emax % adduct formation greater than or equal to 0.0 and less than or equal to 30.0)

CCN1C(=O)[C@@H](NC(=O)c2cccc(C(F)(F)F)c2)[C@@H](c2ccc(F)cc2)c2c(CNC(=O)/C=C/CN3CCC3)nn(-c3ccccc3)c21 (racemic) [Compound I-203]
EC50 ([1]; Homo sapiens, 240 h): 100 to 1000 nM
Nanostring Ymax obs (%) [1]: + (Nanostring Ymax greater than or equal to 0.0 and less than or equal to 50.0)
IC50 ([2]; Homo sapiens, TF-1, 3 h): 100 to 1000 nM
% Adduct Formation (DCN1 protein): + (MS Emax % adduct formation greater than or equal to 0.0 and less than or equal to 30.0)

CCN1C(=O)[C@@H](NC(=O)c2cccc(C(F)(F)F)c2)[C@@H](c2ccc(F)cc2)c2c(CNC(=O)/C(C#N)=C/C(C)(C)C)nn(-c3ccccc3)c21 (racemic) [Compound I-173]
EC50 ([1]; Homo sapiens, 240 h): 100 to 1000 nM
Nanostring Ymax obs (%) [1]: ++ (Nanostring Ymax greater than 50.0 and less than or equal to 100.0)
IC50 ([2]; Homo sapiens, TF-1, 3 h): ≤ 100 nM
% Adduct Formation (DCN1 protein): +++ (MS Emax % adduct formation greater than 80.0 and less than or equal to 100.0)

CCN1C(=O)[C@@H](NC(=O)c2cccc(C(F)(F)F)c2)[C@@H](c2ccc(F)cc2)c2c(CNC(=O)C3=CCC3)nn(-c3ccccc3)c21 (racemic) [Compound I-204]
EC50 ([1]; Homo sapiens, 240 h): > 1000 nM
Nanostring Ymax obs (%) [1]: + (Nanostring Ymax greater than or equal to 0.0 and less than or equal to 50.0)
IC50 ([2]; Homo sapiens, TF-1, 3 h): 100 to 1000 nM
% Adduct Formation (DCN1 protein): + (MS Emax % adduct formation greater than or equal to 0.0 and less than or equal to 30.0)

C#CC(=O)N(C)Cc1nn(-c2ccccc2)c2c1[C@H](c1ccc(F)cc1)[C@H](NC(=O)c1cccc(C(F)(F)F)c1)C(=O)N2CC (racemic) [Compound I-201]
EC50 ([1]; Homo sapiens, 240 h): ≤ 100 nM
Nanostring Ymax obs (%) [1]: + (Nanostring Ymax greater than or equal to 0.0 and less than or equal to 50.0)
IC50 ([2]; Homo sapiens, TF-1, 3 h): 100 to 1000 nM
% Adduct Formation (DCN1 protein): +++ (MS Emax % adduct formation greater than 80.0 and less than or equal to 100.0)

CCN1C(=O)[C@@H](NC(=O)c2cccc(C(F)(F)F)c2)[C@@H](c2ccc(F)cc2)c2c(CNC(=O)[C@H](C)Br)nn(-c3ccccc3)c21 (racemic) [Compound I-180]
EC50 ([1]; Homo sapiens, 240 h): > 1000 nM
Nanostring Ymax obs (%) [1]: + (Nanostring Ymax greater than or equal to 0.0 and less than or equal to 50.0)
IC50 ([2]; Homo sapiens, TF-1, 3 h): 100 to 1000 nM
% Adduct Formation (DCN1 protein): + (MS Emax % adduct formation greater than or equal to 0.0 and less than or equal to 30.0)

CCN1C(=O)[C@@H](NC(=O)c2cccc(C(F)(F)F)c2)[C@@H](c2ccc(F)cc2)c2c(NC(=O)[C@@H](C)Br)nn(-c3ccccc3)c21 (mixture of isomers) [Compound I-177]
EC50 ([1]; Homo sapiens, 240 h): > 1000 nM
Nanostring Ymax obs (%) [1]: ++ (Nanostring Ymax greater than 50.0 and less than or equal to 100.0)
IC50 ([2]; Homo sapiens, TF-1, 3 h): 100 to 1000 nM
% Adduct Formation (DCN1 protein): + (MS Emax % adduct formation greater than or equal to 0.0 and less than or equal to 30.0)

C=C(CN(C)C)C(=O)NCc1nn(-c2ccccc2)c2c1[C@H](c1ccc(F)cc1)[C@H](NC(=O)c1cccc(C(F)(F)F)c1)C(=O)N2CC (racemic) [Compound I-18]
EC50 ([1]; Homo sapiens, 240 h): 100 to 1000 nM
Nanostring Ymax obs (%) [1]: + (Nanostring Ymax greater than or equal to 0.0 and less than or equal to 50.0)
IC50 ([2]; Homo sapiens, TF-1, 3 h): ≤ 100 nM
% Adduct Formation (DCN1 protein): +++ (MS Emax % adduct formation greater than 80.0 and less than or equal to 100.0)

CC#CC(=O)NCc1nn(-c2ccccc2)c2c1[C@H](c1ccc(F)cc1)[C@H](NC(=O)c1cccc(C(F)(F)F)c1)C(=O)N2CC (racemic) [Compound I-184]
Nanostring Ymax obs (%) [1]: ++ (Nanostring Ymax greater than 50.0 and less than or equal to 100.0)
IC50 ([2]; Homo sapiens, TF-1, 3 h): 100 to 1000 nM
% Adduct Formation (DCN1 protein): + (MS Emax % adduct formation greater than or equal to 0.0 and less than or equal to 30.0)

C#CC(=O)N[C@H](C)c1nn(-c2ccccc2)c2c1[C@H](c1ccc(F)cc1)[C@H](NC(=O)c1cccc(C(F)(F)F)c1)C(=O)N2CC (mixture of isomers) [Compound I-236]
EC50 ([1]; Homo sapiens, 240 h): ≤ 100 nM
Nanostring Ymax obs (%) [1]: + (Nanostring Ymax greater than or equal to 0.0 and less than or equal to 50.0)
IC50 ([2]; Homo sapiens, TF-1, 3 h): ≤ 100 nM
% Adduct Formation (DCN1 protein): +++ (MS Emax % adduct formation greater than 80.0 and less than or equal to 100.0)

C=C(C)C(=O)NCc1nn(-c2ccccc2)c2c1[C@H](c1ccc(F)cc1)[C@H](NC(=O)c1cccc(C(F)(F)F)c1)C(=O)N2CC (racemic) [Compound I-206]
EC50 ([1]; Homo sapiens, 240 h): > 1000 nM
Nanostring Ymax obs (%) [1]: + (Nanostring Ymax greater than or equal to 0.0 and less than or equal to 50.0)
IC50 ([2]; Homo sapiens, TF-1, 3 h): 100 to 1000 nM
% Adduct Formation (DCN1 protein): + (MS Emax % adduct formation greater than or equal to 0.0 and less than or equal to 30.0)
